Measurements from ChEMBL document CHEMBL3244417, “Potential antitumor agents. 32. Role of agent base strength in the quantitative structure--antitumor relationships for 4'-(9-acridinylamino)methanesulfonanilide analogues” (J Med Chem, 1979).

Assay: physchem
Description: Dissociation constant, pKa of the compound by UV spectrophotometric analysis

**Q.** For `CCCS(=O)(=O)Nc1ccc(Nc2c3ccccc3nc3c(C(N)=O)cccc23)c(OC)c1`, which pKa is on record?
**A.** 6.35

**Q.** With `CCCS(=O)(=O)Nc1ccc(Nc2c3ccccc3nc3ccccc23)cc1` as the compound, how does the pKa read?
**A.** 7.2

**Q.** For `CCCCCCCS(=O)(=O)Nc1ccc(Nc2c3ccccc3nc3ccccc23)c(OC)c1`, which pKa is on record?
**A.** 7.42

**Q.** For `CCCCS(=O)(=O)Nc1ccc(Nc2c3ccccc3nc3c(C(N)=O)cccc23)c(OC)c1`, which pKa is on record?
**A.** 6.34

**Q.** For `NC(=O)CCCCCc1ccc(Nc2c3ccccc3nc3ccccc23)cc1`, which pKa is on record?
**A.** 7.7

**Q.** With `CCCCCS(=O)(=O)Nc1ccc(Nc2c3ccccc3nc3cc(NC(C)=O)ccc23)cc1` as the compound, how does the pKa read?
**A.** 7.35

**Q.** Which pKa does the source give for `COc1cc(NS(C)(=O)=O)ccc1Nc1c2ccccc2nc2cc(NC(C)=O)ccc12` here?
**A.** 7.56

**Q.** Which pKa does the source give for `COc1ccc2c(Nc3ccc(NS(C)(=O)=O)cc3OC)c3ccccc3nc2c1` here?
**A.** 7.39

**Q.** With `CCCCCS(=O)(=O)Nc1ccc(Nc2c3ccccc3nc3c(C(N)=O)cccc23)c(OC)c1` as the compound, how does the pKa read?
**A.** 6.36

**Q.** For `CCS(=O)(=O)Nc1ccc(Nc2c3ccccc3nc3cc(NC(C)=O)ccc23)cc1`, which pKa is on record?
**A.** 7.35

**Q.** Which pKa does the source give for `CCCCCCS(=O)(=O)Nc1ccc(Nc2c3ccccc3nc3cc([N+](=O)[O-])ccc23)c(OC)c1` here?
**A.** 5.7

**Q.** Which pKa does the source give for `CCCCOc1ccc2c(Nc3ccc(NS(C)(=O)=O)cc3OC)c3ccccc3nc2c1` here?
**A.** 7.34

**Q.** Which pKa does the source give for `CCS(=O)(=O)Nc1ccc(Nc2c3ccccc3nc3cc(NC(C)=O)ccc23)c(OC)c1` here?
**A.** 7.54

**Q.** With `CCCS(=O)(=O)Nc1ccc(Nc2c3ccccc3nc3cc(NC(C)=O)ccc23)cc1` as the compound, how does the pKa read?
**A.** 7.33

**Q.** For `CCCCCS(=O)(=O)Nc1ccc(Nc2c3ccccc3nc3ncccc23)c(OC)c1`, which pKa is on record?
**A.** 6.05

**Q.** Which pKa does the source give for `CCCCCS(=O)(=O)Nc1ccc(Nc2c3ccccc3nc3c(C(=O)NCCCC)cccc23)c(OC)c1` here?
**A.** 6.36

**Q.** With `NC(=O)CCCCCCCc1ccc(Nc2c3ccccc3nc3ccccc23)cc1` as the compound, how does the pKa read?
**A.** 7.7

**Q.** For `CCCCNC(=O)c1cccc2c(Nc3ccc(NS(C)(=O)=O)cc3OC)c3ccccc3nc12`, which pKa is on record?
**A.** 6.36

**Q.** For `COc1cc(NS(C)(=O)=O)ccc1Nc1c2ccccc2nc2cc([N+](=O)[O-])ccc12`, which pKa is on record?
**A.** 5.72

**Q.** Which pKa does the source give for `CCS(=O)(=O)Nc1ccc(Nc2c3ccccc3nc3ccccc23)c(OC)c1` here?
**A.** 7.4

**Q.** With `COc1cc(NS(C)(=O)=O)ccc1Nc1c2ccccc2nc2c(C(=O)NCC(O)CO)cccc12` (stereo unspecified) as the compound, how does the pKa read?
**A.** 6.34

**Q.** With `CCCCCCS(=O)(=O)Nc1ccc(Nc2c3ccccc3nc3c(C(N)=O)cccc23)c(OC)c1` as the compound, how does the pKa read?
**A.** 6.33

**Q.** For `CCS(=O)(=O)Nc1ccc(Nc2c3ccccc3nc3cc(OC)ccc23)c(OC)c1`, which pKa is on record?
**A.** 7.36

**Q.** With `NC(=O)CCCCCCCCc1ccc(Nc2c3ccccc3nc3ccccc23)cc1` as the compound, how does the pKa read?
**A.** 7.7

**Q.** For `CNC(=O)COc1ccc2c(Nc3ccc(NS(C)(=O)=O)cc3OC)c3ccccc3nc2c1`, which pKa is on record?
**A.** 7.35

**Q.** Which pKa does the source give for `NC(=O)CCCc1ccc(Nc2c3ccccc3nc3ccccc23)cc1` here?
**A.** 7.67

**Q.** Which pKa does the source give for `CCCCCS(=O)(=O)Nc1ccc(Nc2c3ccccc3nc3ccccc23)c(OC)c1` here?
**A.** 7.39

**Q.** For `CCCCCS(=O)(=O)Nc1ccc(Nc2c3ccccc3nc3cc([N+](=O)[O-])ccc23)c(OC)c1`, which pKa is on record?
**A.** 5.69

**Q.** For `COc1cc(NS(C)(=O)=O)ccc1Nc1c2ccccc2nc2ccccc12`, which pKa is on record?
**A.** 7.34

**Q.** Which pKa does the source give for `CNC(=O)c1cccc2c(Nc3ccc(NS(C)(=O)=O)cc3OC)c3ccccc3nc12` here?
**A.** 6.36

**Q.** With `CCCCCCS(=O)(=O)Nc1ccc(Nc2c3ccccc3nc3ccccc23)c(OC)c1` as the compound, how does the pKa read?
**A.** 7.42

**Q.** For `NC(=O)CCCCc1ccc(Nc2c3ccccc3nc3ccccc23)cc1`, which pKa is on record?
**A.** 7.7

**Q.** Which pKa does the source give for `CCCCCS(=O)(=O)Nc1ccc(Nc2c3ccccc3nc3ccccc23)cc1` here?
**A.** 7.19

**Q.** For `CCS(=O)(=O)Nc1ccc(Nc2c3ccccc3nc3ncccc23)c(OC)c1`, which pKa is on record?
**A.** 6.07

**Q.** With `CCCCCCCS(=O)(=O)Nc1ccc(Nc2c3ccccc3nc3cc(NC(C)=O)ccc23)c(OC)c1` as the compound, how does the pKa read?
**A.** 7.55

**Q.** With `CCCCCCS(=O)(=O)Nc1ccc(Nc2c3ccccc3nc3cc(NC(C)=O)ccc23)c(OC)c1` as the compound, how does the pKa read?
**A.** 7.54

**Q.** For `COc1cc(NS(C)(=O)=O)ccc1Nc1c2ccccc2nc2ncccc12`, which pKa is on record?
**A.** 6.09

**Q.** For `CCCCCCS(=O)(=O)Nc1ccc(Nc2c3ccccc3nc3ccccc23)cc1`, which pKa is on record?
**A.** 7.17

**Q.** With `CCCCCCS(=O)(=O)Nc1ccc(Nc2c3ccccc3nc3cc(NC(C)=O)ccc23)cc1` as the compound, how does the pKa read?
**A.** 7.34

**Q.** With `CCCS(=O)(=O)Nc1ccc(Nc2c3ccccc3nc3ccccc23)c(OC)c1` as the compound, how does the pKa read?
**A.** 7.41

**Q.** For `CCCOc1ccc2c(Nc3ccc(NS(C)(=O)=O)cc3OC)c3ccccc3nc2c1`, which pKa is on record?
**A.** 7.36

**Q.** For `CCCCS(=O)(=O)Nc1ccc(Nc2c3ccccc3nc3cc(OC)ccc23)c(OC)c1`, which pKa is on record?
**A.** 7.35

**Q.** With `CCCS(=O)(=O)Nc1ccc(Nc2c3ccccc3nc3cc([N+](=O)[O-])ccc23)c(OC)c1` as the compound, how does the pKa read?
**A.** 5.69

**Q.** Which pKa does the source give for `CCCCCCCS(=O)(=O)Nc1ccc(Nc2c3ccccc3nc3c(C(N)=O)cccc23)c(OC)c1` here?
**A.** 6.33

**Q.** Which pKa does the source give for `CCCCCCCS(=O)(=O)Nc1ccc(Nc2c3ccccc3nc3cc([N+](=O)[O-])ccc23)c(OC)c1` here?
**A.** 5.69

**Q.** Which pKa does the source give for `CCS(=O)(=O)Nc1ccc(Nc2c3ccccc3nc3c(C(N)=O)cccc23)c(OC)c1` here?
**A.** 6.35

**Q.** Which pKa does the source give for `CCCCNC(=O)c1cccc2c(Nc3ccc(NS(=O)(=O)CCC)cc3OC)c3ccccc3nc12` here?
**A.** 6.35

**Q.** For `CCCS(=O)(=O)Nc1ccc(Nc2c3ccccc3nc3cc(NC(C)=O)ccc23)c(OC)c1`, which pKa is on record?
**A.** 7.57

**Q.** Which pKa does the source give for `CCCCS(=O)(=O)Nc1ccc(Nc2c3ccccc3nc3cc([N+](=O)[O-])ccc23)c(OC)c1` here?
**A.** 5.71

**Q.** With `CCCCS(=O)(=O)Nc1ccc(Nc2c3ccccc3nc3ccccc23)cc1` as the compound, how does the pKa read?
**A.** 7.18

**Q.** With `CCCS(=O)(=O)Nc1ccc(Nc2c3ccccc3nc3ncccc23)c(OC)c1` as the compound, how does the pKa read?
**A.** 6.04

**Q.** For `COc1cc(NS(C)(=O)=O)ccc1Nc1c2ccccc2nc2cc(OCCO)ccc12`, which pKa is on record?
**A.** 7.36

**Q.** For `CCCCCCCS(=O)(=O)Nc1ccc(Nc2c3ccccc3nc3ncccc23)c(OC)c1`, which pKa is on record?
**A.** 6.04

**Q.** For `CCCCCS(=O)(=O)Nc1ccc(Nc2c3ccccc3nc3cc(NC(C)=O)ccc23)c(OC)c1`, which pKa is on record?
**A.** 7.54

**Q.** Which pKa does the source give for `COc1cc(NS(C)(=O)=O)ccc1Nc1c2ccccc2nc2c(C(N)=O)cccc12` here?
**A.** 6.37

**Q.** Which pKa does the source give for `CCCCS(=O)(=O)Nc1ccc(Nc2c3ccccc3nc3cc(NC(C)=O)ccc23)cc1` here?
**A.** 7.32

**Q.** Which pKa does the source give for `COc1cc(NS(C)(=O)=O)ccc1Nc1c2ccccc2nc2c(C(=O)NCC(N)=O)cccc12` here?
**A.** 6.18

**Q.** With `CCCCS(=O)(=O)Nc1ccc(Nc2c3ccccc3nc3ncccc23)c(OC)c1` as the compound, how does the pKa read?
**A.** 6.06

**Q.** Which pKa does the source give for `CCS(=O)(=O)Nc1ccc(Nc2c3ccccc3nc3cc([N+](=O)[O-])ccc23)c(OC)c1` here?
**A.** 5.7

**Q.** Which pKa does the source give for `NC(=O)CCCCCCc1ccc(Nc2c3ccccc3nc3ccccc23)cc1` here?
**A.** 7.7

**Q.** For `CCCS(=O)(=O)Nc1ccc(Nc2c3ccccc3nc3cc(OC)ccc23)c(OC)c1`, which pKa is on record?
**A.** 7.38

**Q.** For `CCCCCCS(=O)(=O)Nc1ccc(Nc2c3ccccc3nc3ncccc23)c(OC)c1`, which pKa is on record?
**A.** 6.03

**Q.** With `CCCCS(=O)(=O)Nc1ccc(Nc2c3ccccc3nc3cc(NC(C)=O)ccc23)c(OC)c1` as the compound, how does the pKa read?
**A.** 7.56

**Q.** For `CCS(=O)(=O)Nc1ccc(Nc2c3ccccc3nc3ccccc23)cc1`, which pKa is on record?
**A.** 7.19

**Q.** Which pKa does the source give for `COc1cc(NS(C)(=O)=O)ccc1Nc1c2ccccc2nc2cc(OCCCC(N)=O)ccc12` here?
**A.** 7.36

**Q.** For `CCCCCCCCS(=O)(=O)Nc1ccc(Nc2c3ccccc3nc3ccccc23)c(OC)c1`, which pKa is on record?
**A.** 7.44

**Q.** With `COc1cc(NS(C)(=O)=O)ccc1Nc1c2ccccc2nc2c(C(=O)N(C)C)cccc12` as the compound, how does the pKa read?
**A.** 6.16

**Q.** Which pKa does the source give for `CCCCS(=O)(=O)Nc1ccc(Nc2c3ccccc3nc3ccccc23)c(OC)c1` here?
**A.** 7.41

**Q.** For `CCOc1ccc2c(Nc3ccc(NS(C)(=O)=O)cc3OC)c3ccccc3nc2c1`, which pKa is on record?
**A.** 7.37

**Q.** With `CNC(=O)CNC(=O)c1cccc2c(Nc3ccc(NS(C)(=O)=O)cc3OC)c3ccccc3nc12` as the compound, how does the pKa read?
**A.** 6.2

**Q.** With `COc1cc(NS(C)(=O)=O)ccc1Nc1c2ccccc2nc2cc(OCC(O)CO)ccc12` (stereo unspecified) as the compound, how does the pKa read?
**A.** 7
